Earlier results, collected in patent US12667644B2, “Iodine-infused ultra high molecular weight polyethylene” (Biomet Manufacturing, LLC, priority 2019, dated 2026).

System: microbes

povidone-iodine
minimum concentration required to achieve antimicrobial activity: about 2 ppm
